Activity calls are given as the source filed them. The calls are words filed in the database; no cut-off is given here.
How the values were obtained:
[1] = test system: Epidermal growth factor receptor (Homo sapiens), P00533 [L858R,T790M,C797S]; assay: (§1) Inhibition of recombinant human C-terminal His-tagged/N-terminal GST-tagged EGFR (668 to 1210 residues) T790M/L858R/C797S mutant expressed in baculovirus expression system using poly (Glu,Tyr) 4:1 as substrate incubated for 1 hr in presence of ATP by ELISA
Epidermal growth factor receptor (Homo sapiens), P00533 [L858R,T790M,C797S], sequence (P00533 whole entry T790M/C797S/L858R, the tested form may be a part): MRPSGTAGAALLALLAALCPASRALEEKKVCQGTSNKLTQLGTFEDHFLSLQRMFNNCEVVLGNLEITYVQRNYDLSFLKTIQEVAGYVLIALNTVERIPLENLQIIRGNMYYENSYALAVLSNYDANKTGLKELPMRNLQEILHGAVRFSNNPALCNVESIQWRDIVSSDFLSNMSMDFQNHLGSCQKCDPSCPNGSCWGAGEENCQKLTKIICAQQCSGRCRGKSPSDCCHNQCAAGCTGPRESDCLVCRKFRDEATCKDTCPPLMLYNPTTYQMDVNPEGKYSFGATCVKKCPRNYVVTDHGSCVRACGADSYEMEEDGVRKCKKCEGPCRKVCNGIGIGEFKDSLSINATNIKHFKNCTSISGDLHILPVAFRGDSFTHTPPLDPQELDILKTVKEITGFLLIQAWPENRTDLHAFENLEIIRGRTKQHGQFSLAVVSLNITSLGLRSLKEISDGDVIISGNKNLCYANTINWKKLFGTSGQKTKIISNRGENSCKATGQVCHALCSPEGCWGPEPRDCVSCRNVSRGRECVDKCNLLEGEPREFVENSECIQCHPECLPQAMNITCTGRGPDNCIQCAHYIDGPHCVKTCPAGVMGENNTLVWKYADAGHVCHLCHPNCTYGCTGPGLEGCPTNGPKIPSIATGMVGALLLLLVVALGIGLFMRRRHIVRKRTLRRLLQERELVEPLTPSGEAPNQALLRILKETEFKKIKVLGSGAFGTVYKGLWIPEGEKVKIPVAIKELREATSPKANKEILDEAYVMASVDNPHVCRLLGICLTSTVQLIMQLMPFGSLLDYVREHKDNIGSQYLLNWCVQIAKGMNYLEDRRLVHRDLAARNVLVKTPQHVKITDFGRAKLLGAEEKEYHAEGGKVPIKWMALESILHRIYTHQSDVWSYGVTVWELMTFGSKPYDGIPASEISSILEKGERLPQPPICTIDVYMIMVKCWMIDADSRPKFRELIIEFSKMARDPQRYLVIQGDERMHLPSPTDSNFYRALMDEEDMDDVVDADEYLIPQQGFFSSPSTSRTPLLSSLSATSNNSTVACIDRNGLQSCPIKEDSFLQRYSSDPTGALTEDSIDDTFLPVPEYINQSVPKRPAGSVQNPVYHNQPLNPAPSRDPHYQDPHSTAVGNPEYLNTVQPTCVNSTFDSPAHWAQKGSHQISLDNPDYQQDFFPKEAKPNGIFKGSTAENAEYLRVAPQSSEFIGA

[2] = target: Epidermal growth factor receptor (Homo sapiens, UniProt P00533, C797S/L858R/T790M); assay: as §1
Epidermal growth factor receptor, sequence (P00533 whole entry T790M/C797S/L858R): as the sequence (P00533 whole entry T790M/C797S/L858R, the tested form may be a part) above

[3] = test system: NCI-H1975; assay: Antiproliferative activity human NCI-H1975 cells incubated for 72 hrs by SRB assay; assay type: functional, cell-based; settings: NCI-H1975, 72 h
[4] = test system: A-431; assay: Antiproliferative activity human A431 cells incubated for 72 hrs by SRB assay; assay type: functional, cell-based; settings: A-431, 72 h
[5] = test system: BaF3; assay: Cytotoxicity against mouse BAF3 cells incubated for 72 hrs by resazurin dye based assay; assay type: cell-based; settings: BaF3, 72 h
[6] = test system: BaF3; assay: Antiproliferative activity against mouse BAF3 cells transfected with EGFR L858R/T790M/C797S mutant (unknown origin) incubated for 72 hrs by resazurin dye based assay; assay type: functional, cell-based; settings: BaF3, 72 h

Compound: COc1cc2c(Nc3cc(NC(=O)Cc4ccccc4)ccc3F)ncnc2cc1OCC1CCN(C)CC1
- inhibition [1]: inactive

Compound: COc1cc2ncnc(Nc3ccc(NC(=O)C(c4ccccc4)N4Cc5ccccc5C4=O)cc3F)c2cc1OCCCN1CCOCC1 (stereo not drawn)
- inhibition [1]: Active

Compound: COc1cc2c(Nc3ccc(NC(=O)CC4Cc5ccccc5C4)cc3F)ncnc2cc1OCC1CCN(C)CC1
- inhibition [1]: inactive

Compound: COc1cc2c(Nc3ccc(NC(=O)C(c4ccccc4)c4ccccc4)cc3F)ncnc2cc1OCC1CCN(C)CC1
- inhibition [1]: inactive

Compound: COc1cc2c(Nc3ccc(NC(=O)C(C4CCCCC4)N4Cc5ccccc5C4=O)cc3F)ncnc2cc1OCC1CCN(C)CC1 (stereo not drawn)
- IC50 [2]: 180 nM

Compound: COc1cc2c(Nc3ccc(NC(=O)c4ccccc4)cc3F)ncnc2cc1OCC1CCN(C)CC1
- inhibition [1]: inactive

Compound: COc1cc2c(Nc3cc(NC(=O)c4ccccc4)ccc3F)ncnc2cc1OCC1CCN(C)CC1
- inhibition [1]: inactive

Compound: COc1cc2ncnc(Nc3ccc(NC(=O)C(c4ccccc4)N4Cc5ccccc5C4=O)cc3F)c2cc1OC (stereo not drawn)
- inhibition [1]: Active

Compound: COc1cc2c(Nc3ccc(NC(=O)C(c4ccccc4)N4Cc5ccccc5C4=O)cc3F)ncnc2cc1OCC1CCN(C)CC1 (stereo not drawn)
- IC50 [2]: 9.3 nM

Compound: C=CC(=O)Nc1cc(Nc2nccc(-c3cn(C)c4ccccc34)n2)c(OC)cc1N(C)CCN(C)C [OSIMERTINIB]
- IC50 [5]: 5.11 µM
- IC50 [6]: 3.93 µM

Source: ChEMBL document CHEMBL4396901, “Discovery of Potent and Noncovalent Reversible EGFR Kinase Inhibitors of EGFRL858R/T790M/C797S” (ACS Med Chem Lett, 2019)
